{"source": "patent US20160311812A1", "about": "“ADENOSINE A1 AGONISTS AS MEDICAMENTS FOR KIDNEY DISORDERS” (BAYER PHARMA AKTIENGESELLSCHAFT, priority 2013, published 2016)", "key": {"[1]": {"test_system": "glycerol-rat model", "experiment": "Acute renal protection in the glycerol rat (haemolytic-uraemic syndrome)", "assay_type": "in vivo", "conditions": "Group 3: glycerol + 10 mg/kg BW p.o. 8 and 19 h after glycerol injection", "source_text": "B-2. Acute Renal Protection by Partial A1 Agonists in the Glyeriol Rat (Haemolytic-Uraemic Syndrome; Example for Acute Kidney Disorders)\nGlycerol-induced haemolysis in rats is an established animal model for investigating haemolysis-induced, acute renal failure with decrease of the individual nephron filtrate and a rapid increase in substances that are usually eliminated in the urine, such as creatinine and urea. Haemolytic uraemia leads to acute blockade of the tubules through protein deposits (“luminal casts”) and finally to degeneration/necrosis of the tubules. At present there is no known curative therapy, i.e. an antidegenerative therapy of structural kidney injury.\nProcedure: male Wistar:WU rats (200-220 g) from Charles River received, after withdrawal of water for 14-18 hours, a single subcutaneous injection of a 50% glycerol solution (8 ml/kg body weight) or 0.9% NaCl (controls). The following groups were investigated:\nGroup 2 Glycerol+placebo (60 g glycerol+100 g water+969 g PEG-400); n=12\nGroup 3 Glycerol+10 mg/kg BW partial A1 agonist EXAMPLE 1, p.o. in placebo, 8 and 19 hours after glycerol injection; n=8\nAt the end of the protocol (=24 hours after glycerol intoxication), the following samples were obtained/measurements were carried out: four-hour urine collection with administration of water (10 ml water/kg body weight, p.o.), and TaqMan analyses of renal injury markers in the renal cortex of the right kidney and histological assessment of the “kidney injury score” in the left kidney, by determining the degree of renal damage from the intensity of “luminal casts+tubular necrosis/degeneration”."}, "[2]": {"test_system": "unilaterally nephrectomized SHR", "experiment": "Functional and structural renal dysfunction in unilaterally nephrectomized spontaneously hypertensive rats", "assay_type": "in vivo, rat", "conditions": "Group 4: SNX + 1.0 mg/kg body weight/day p.o., 4 weeks", "source_text": "(§1) B-4. Effects of Partial A1 Agonists on Renal and Cardiac Function in Unilaterally Nephrectomized and Spontaneously Hypertensive Rats (Example 2 for Chronic Kidney Disorders)\n(§2) Unilaterally nephrectomized, spontaneously hypertensive rats (SHR) are an established animal model for investigating the development and progression of hypertensive damage of the glomeruli in the remaining kidney [H. Kinuno et al., “Effects of uninephrectomy on renal structural properties in spontaneously hypertensive rats”, Clin and Exp Pharmacol and Physiol 2005, 32, 173-178]. […] Furthermore, renal excretion of substances usually eliminated in the urine, such as creatinine and urea, is reduced and the electrolyte metabolism is disturbed, the latter being associated with volume retention.\n(§3) Procedure: male SHR rats (180-220 g) from Taconic had the left kidney removed in one session (=UNX). Normotensive Wistar Kyoto rats (WKY) from Taconic served as control. The following groups, each with 12 rats per group, were investigated:\n(§4) Group 2 UNX+placebo (60 g glycerol+100 g water+969 g PEG-400)\n(§5) Group 3 UNX+10 mg/kg body weight/day enalapril (reference therapy, in the drinking water)\n(§6) Group 4 SNX+1.0 mg/kg body weight/day partial A1 EXAMPLE 1, p.o. in placebo\n(§7) Group 5 SNX+3.0 mg/kg body weight/day partial A1 EXAMPLE 4, p.o. in placebo\n(§8) Three weeks after unilateral nephrectomy, the SHRs developed manifest hypertensive damage of the glomeruli in the remaining kidney, from this time point on the rats were treated for a further four weeks corresponding to the groups given above. At the end of the protocol, the following samples were obtained/measurements were carried out: eight-hour urine collection, invasive measurement of systolic and diastolic left ventricular function, and TaqMan analyses of renal injury markers in the renal cortex."}, "[3]": {"test_system": "unilaterally nephrectomized SHR", "experiment": "Functional and structural myocardial dysfunction in unilaterally nephrectomized spontaneously hypertensive rats", "assay_type": "in vivo, rat", "conditions": "Group 4: SNX + 1.0 mg/kg body weight/day p.o., 4 weeks", "source_text": "as §1, §2, §3, §4, §5, §6, §7, §8"}}, "note": "Marks after values point to notes of the source that are not given here.", "data": [{"molecule": "N#Cc1c(N)nc(SCc2csc(-c3ccc(Cl)cc3)n2)c(C#N)c1-c1ccc(OCCO)cc1", "note": "[EXAMPLE 1, 2-Amino-6-({[2-(4-chlorophenyl)-1,3-thiazol-4-yl]methyl}sulphanyl)-4-[4-(2-hydroxyethoxy)phenyl]pyridine-3,5-dicarbonitrile]", "values": [{"measurement": "P-creatinine", "setting": "[1]; 24 h after glycerol", "result": "52 ± 1", "unit": "µmol/L"}, {"measurement": "P-urea", "setting": "[1]; 24 h after glycerol", "result": "11 ± 0.4*^ mmol/l"}, {"measurement": "Kidney injury marker-1", "setting": "[1]; TaqMan, renal cortex", "result": "951 ± 216", "unit": "rel. expression"}, {"measurement": "Lipocalin-2", "setting": "[1]; TaqMan, renal cortex", "result": "204 ± 23", "unit": "rel. expression"}, {"measurement": "Osteopontin", "setting": "[1]; TaqMan, renal cortex", "result": "5575 ± 694", "unit": "rel. expression"}, {"measurement": "U-creatinine", "setting": "[1]; four-hour urine collection", "result": "0.2 ± 0.03", "unit": "μmol/ml urine/kg BW/h"}, {"measurement": "U-protein", "setting": "[1]; four-hour urine collection", "result": "0.02 ± 0.01", "unit": "μmol/ml urine/kg BW/h"}, {"measurement": "U-sodium", "setting": "[1]; four-hour urine collection", "result": "4 ± 1", "unit": "μmol/ml urine/kg BW/h"}, {"measurement": "U-urea", "setting": "[1]; four-hour urine collection", "result": "31 ± 6", "unit": "μmol/ml urine/kg BW/h"}, {"measurement": "Urine volume", "setting": "[1]; four-hour urine collection", "result": "6.7 ± 0.6", "unit": "ml/kg BW/h"}, {"measurement": "Kidney injury score (histo)", "setting": "[1]; left kidney, luminal casts + tubular necrosis/degeneration", "result": 1.12}, {"measurement": "P-creatinine", "setting": "[2]", "result": "62 ± 1.1", "unit": "mmol/L"}, {"measurement": "P-urea", "setting": "[2]", "result": "9.3 ± 0.4", "unit": "mmol/L"}, {"measurement": "U-creatinine", "setting": "[2]", "result": "2.1 ± 0.4", "unit": "μmol/ml urine/kg BW/h"}, {"measurement": "U-protein", "setting": "[2]", "result": "0.53 ± 0.10", "unit": "μmol/ml urine/kg BW/h"}, {"measurement": "U-sodium", "setting": "[2]", "result": "37 ± 9", "unit": "μmol/ml urine/kg BW/h"}, {"measurement": "U-urea", "setting": "[2]", "result": "186 ± 31", "unit": "μmol/ml urine/kg BW/h"}, {"measurement": "Urine volume", "setting": "[2]", "result": "2.1 ± 0.2", "unit": "ml/kg BW/h"}, {"measurement": "CYR61 [gene expression]", "setting": "[2]; renal cortex", "result": "395 ± 47", "unit": "rel. expression"}, {"measurement": "Lipocalin-2 [gene expression]", "setting": "[2]; renal cortex", "result": "160 ± 24", "unit": "rel. expression"}, {"measurement": "Diastolic blood pressure", "setting": "[3]", "result": "112 ± 6", "unit": "mmHg"}, {"measurement": "Heart rate", "setting": "[3]", "result": "295 ± 11", "unit": "beats/min"}, {"measurement": "Left ventricular hypertrophy (LVS/RV ratio, mg/mg)", "setting": "[3]", "result": "4.3 ± 0.2", "unit": "mg/mg"}, {"measurement": "Left-ventricular end-diastolic pressure", "setting": "[3]", "result": "8.5 ± 1.3", "unit": "mmHg"}, {"measurement": "Left-ventricular pressure", "setting": "[3]", "result": "169 ± 8", "unit": "mmHg"}, {"measurement": "Pressure decrease over time", "setting": "[3]", "result": "−10181 ± 523", "unit": "mmHg/s"}, {"measurement": "Pressure increase over time", "setting": "[3]", "result": "7943 ± 512", "unit": "mmHg/s"}, {"measurement": "Systolic blood pressure", "setting": "[3]", "result": "171 ± 8", "unit": "mmHg"}]}]}
